The subject of this test is naive T cells in PBMCs of HIV-1-seronegative individuals. As to the kind of experiment: In vitro priming of epitope-specific CD8+ T cells from naive T cells (accelerated dendritic cell coculture, tetramer staining). It counts as cell-based, human. As for the experimental part:
Naive CD8^+ T-cell precursors specific for HLA-B*52:01-restricted, HLA-A*24:02-restricted, or HLA-C*12:02-restricted ones were primed in vitro by using the accelerated dendritic cell coculture protocol ([23], [24], [56], [57]). On day 0, frozen-thawed PBMCs of HIV-1-seronegative individuals having the HLA-B*52:01-C*12:02 haplotype or HLA-A*24:02 were suspended at 5 × 10^6 cells/well in 24-well tissue culture plates containing AIM-V medium (Invitrogen) supplemented with Flt3L (50 ng/ml; R&D Systems). AIM-V medium supplemented with a 10 μM concentration of each peptide and STING ligand 3′3′-cGAMP (10 μg/ml; InvivoGen) was added on day 1, and then FCS was further added to 10% by volume per well on day 2. On day 10, the cells were collected and then stained with epitope-specific tetramers.
HLA-B*52:01-RI8, -MI8, -SI8, or -WV8 peptide tetrameric complexes (tetramers) and HLA-A*24:02-RF10, HLA-C*12:02-IY11, -MY9, or -RL9 complexes were generated as previously described ([58]). CD8^+ T cells specific for a given epitope were stained with phycoerythrin (PE)-conjugated epitope-specific tetramers at 37°C for 30 min. The cells were then washed twice with RPMI 1640 medium containing 5% FCS (R5), followed by staining with allophycocyanin (APC)-conjugated anti-CD8 MAb (Dako, Denmark) and 7-aminoactinomycin D (7-AAD; BD Pharmingen) at 4°C for 30 min. Finally, the cells were washed twice with R5 and then analyzed by using a FACS Canto II. Primed T cells unstained with tetramer were used as a negative control to determine gating of the tetramer^+ population. The tetramer^+ population was determined based on the gating of the negative control ([…] of tetramer^+ cells).

Where [1] appears, read: HIV-1-uninfected individuals having HLA-B*52:01-C*12:02 haplotype.

For the molecule `Nc1nc2c(ncn2[C@@H]2O[C@@H]3COP(=O)(O)O[C@H]4[C@@H](O)[C@H](n5cnc6c(N)ncnc65)O[C@@H]4COP(=O)(O)O[C@H]3[C@H]2O)c(=O)[nH]1` [3′3′-cGAMP], under setting [1], the “priming of CD8+ T cells specific for HLA-B*52:01-restricted epitopes from naive T cells” value is reported as “effectively primed CD8^+ T cells specific for 3 of 4 HLA-B*52:01-restricted epitopes” and the “priming of CD8+ T cells specific for HLA-C*12:02-restricted epitopes from naive T cells” value was “failed to prime those specific for all 3 HLA-C*12:02-restricted epitopes”. Further, under “stimulated with 3′3′-cGAMP (10 μg/ml) and NefRF10 peptide (10 μM) after Flt3 ligand 24 h, PBMCs from 7 HIV-1-seronegative HLA-A*24:02+ individuals, HLA-A*24:02-NefRF10 tetramer, 10-day culture, SD”, the “mean frequency of NefRF10-specific T cells ± 2 SD” value is recorded as 0.206% ± 0.186%.

For the origin of these results see paper PMC8312882, “STING Ligand-Mediated Priming of Functional CD8^+ T Cells Specific for HIV-1-Protective Epitopes from Naive T Cells” (Journal of Virology, 2021).
